Test results reported in PubChem BioAssay AID624344 (Sanford-Burnham Center for Chemical Genomics, 2012).
Calls of active or inactive are those of the source. No rule for the calls is given here.

Key:
[1] = NFkB reporter suppression in cystic fibrosis bronchial cells – cell-based, uHTS hits, panel, cytotoxicity readout, dose response (AID 624344); details: CF bronchial epithelial cells, PAF-induced NFkB reporter inhibition; with PAF, mean of runs
[2] = tested on: Cytotoxicity; assay: as above; details: CF bronchial epithelial cells, mean of runs

Compound	IC50 [1]	IC50 [2]
Cc1ccc(NC(=O)Nc2nnc(-c3ccncc3)s2)cc1	5.53 µM	11 µM
CCCCCCc1cc2cc(S(=O)(=O)c3ccc(F)cc3)c(=O)oc2cc1O	4.48 µM	4.76 µM
COc1ccc2[nH]c3c(c2c1)CCNC3=O	1.37 µM	> 79 µM (inactive)
COc1ccc(-c2csc3ncnc(NCCN4CCOCC4)c23)cc1	3.79 µM	47 µM
Cc1cccc(C)c1NS(=O)(=O)c1ccc(-c2cnc(C3CC3)o2)cc1	11.8 µM	35 µM
Cc1ccc(NC(=O)Nc2cccc([N+](=O)[O-])c2)cc1F	6.2 µM	3.58 µM
CCCN(CC)c1ncnc2[nH]ncc12	1.55 µM	36.3 µM
CCc1nc(Cl)c(C#N)c2c1CCCC2	2.87 µM	45.4 µM
CC1=C(C(=O)OCc2ccc3c(c2)OCO3)C(c2cccc([N+](=O)[O-])c2)NC(=O)N1 (centres undefined)	2.71 µM	> 79 µM (inactive)
Brc1ccc2ncnc(NCc3cccnc3)c2c1	2.25 µM	66.2 µM (inactive)
COc1ccc(-c2cn[nH]c2-c2ccc(OCc3ccccc3F)cc2O)cc1OC	3.57 µM	18 µM
COc1cc2c(c(OC)c1OC)-c1ccc(O)cc1C(NC(C)=O)CC2 (centres undefined)	> 79 µM (inactive)	> 79 µM (inactive)
O=C(Nc1cccc(Cl)c1)Nc1csc([N+](=O)[O-])c1	4.12 µM	0.788 µM
Cc1nc([N+](=O)[O-])c(Sc2nc3ccccc3n2C)n1Cc1ccccc1	4.05 µM	13 µM
COc1ccc2c(c1)[nH]c1c(C)nccc12	3.77 µM	> 79 µM (inactive)
CC(C)(CO)CNc1ccn2nccc2n1	5.29 µM	76.7 µM (inactive)
CCOC(=O)c1c(-c2ccc(C)cc2)csc1NC(=O)c1ccc(N2C(=O)CCC2=O)cc1	inactive	61 µM (inactive)
COc1ccc(Nc2nc(-c3ccccc3)nc3ccccc23)cc1S(=O)(=O)N1CCOCC1	4.84 µM	7.17 µM
Fc1ccc(-n2cc(-c3ccccc3)c3c(N4CCOCC4)ncnc32)cc1	3.21 µM	8.13 µM
CCOC(=O)c1ccc(-n2[nH]c(-c3ccccc3)cc2=O)cc1	5.35 µM	3.77 µM
COc1cccc2sc(N(CCCN(C)C)C(=O)CCS(=O)(=O)c3ccccc3)nc12	2.34 µM	4.84 µM

Compound	IC50 [1]	IC50 [2]
O=C1NC(=S)N/C1=C/c1cccnc1	5.96 µM	41.8 µM
CCCc1nc(Cl)c(C#N)c2c1CCCC2	4.3 µM	73 µM (inactive)
CS(=O)(=O)Nc1ccc(-c2cnc3cccnn23)cc1	2.5 µM	> 79 µM (inactive)
Clc1ccc(CSc2nnc(-c3ccncc3)o2)cc1	5.92 µM	> 79 µM (inactive)
COc1ccc(-c2csc3ncnc(NCCO)c23)cc1	1.85 µM	54 µM (inactive)
CC(C)(C)OC(=O)NCCCCCNC(=O)c1nc[nH]c1C(=O)NCC(=O)OCc1ccccc1	3.56 µM	9.6 µM
CC(=O)Oc1ccc(N(C(C)=O)S(=O)(=O)c2cccs2)c2ccccc12	6.45 µM	11.7 µM
COc1ccc2nc(Nc3nc(CSc4nc5ccccc5[nH]4)cc(=O)[nH]3)nc(C)c2c1	5.97 µM	44 µM
O=C(CCS(=O)(=O)c1ccccc1)N(CCCN1CCOCC1)c1nc2c(F)cccc2s1	7.63 µM	18.1 µM
CC(=O)Nc1ccc(-c2ccnc3c2CC(C(=O)NCc2ccccc2)O3)cc1 (centres undefined)	> 79 µM (inactive)	> 79 µM (inactive)
C=C1C(=O)OC2CC1C(O)CC(C)=CCCC(C)=CC(O)CC2C (centres undefined)	0.537 µM	1.09 µM
COc1cncc(-c2cnc3sc(NCCc4ccccn4)nn23)c1	1.53 µM	> 79 µM (inactive)
Cc1ccc2nc(SCC(=O)Nc3cc(C(F)(F)F)ccc3N3CCOCC3)[nH]c2c1	inactive	60.8 µM (inactive)
Cc1ccc(-c2onc3ccc(C(=O)/C=C/N(C)C)cc23)cc1	9.39 µM	22.9 µM
C[C@@H]1C[C@@H]([C@H](O)CC2CC(=O)NC(=O)C2)C(=O)[C@@H](C)C1	0.46 µM	11.6 µM
CC(C)Nc1ncnc2ccc(Br)cc12	0.706 µM	10.8 µM
Cc1c(O)ccc2c(-c3ccccc3)cc(=O)oc12	3.98 µM	70.9 µM (inactive)
O=C(c1nnsc1S(=O)c1ccc(Cl)cc1)N1CCOCC1 (centres undefined)	1.87 µM	10.7 µM
Clc1cncc(Cl)c1N/N=C/c1ccncc1	1.67 µM	12.5 µM
CCc1cc(SC#N)cc(C)c1NC(=O)CCl	5.47 µM	43.5 µM
COC(=O)c1ccc(-c2ccc(OC)c([C@H]3[C@H]4C=CC[C@@H](C)[C@@H]4C(=O)N3Cc3ccccc3)c2)cc1	2.4 µM	29.8 µM
